Measurements from patent publication US11752125B2, “Anti-neuroinflammatory and protective compounds in Achillea fragrantissima” (THE STATE OF ISRAEL MINISTRY OF AGRICULTURE & RURAL …, priority 2013, dated 2023).

Columns and labels:
Assay type in all cases: cell-based, rat
IL-1β = IL-1β secretion from LPS-stimulated microglial cells (ELISA); conditions: LPS 100 ng/mL, 24 h
Method: (§1) Cultures of primary rat microglial cells were prepared from cerebral cortices of 1-2 day-old neonatal Wistar rats as described. Microglial cells were seeded at 24-well plastic plates at 1×10^5/well in RPMI-1640 containing 2% FBS, 2 mM glutamine, 100 U/mL penicillin, 100 µg/mL streptomycin, 1 mM sodium pyruvate, and 50 μM β-mercaptoethanol. Cells were cultured for 36 h before treatments. The research was conducted in accordance with the NIH guide for the care and use of laboratory animals, and was approved by the Institutional Animal Care and Use Committee of The Volcani Center, Agricultural Research Organization (IL-135/07, approval date Apr. 11, 2007). All efforts were made to minimize animal suffering, and to reduce the number of animals used.
For IL-1β measurements, 3.5×10^4 cells/well were plated on a 24-well tissue culture plate. After 24 h of incubation in DMEM containing 10% FBS, cells were stimulated with LPS (100 ng/mL) and treated with different concentrations of achillolide A. Conditioned media were collected twenty four hours later, and were tested with a rat IL1β ELISA kit (Novus Biologicals; CO, USA), according to the manufacturer's instructions.
2. Plate microglial cells (3.5×10^4 cells/well) on a 24-well tissue culture plate, in DMEM containing 10% FBS, 2 mM glutamine, 100 U/ml penicillin and 100 micrograms/mL streptomycin;
Microglial cells were treated with different concentrations of TTF, followed by stimulation with LPS (100 ng/mL). After 24 h, conditioned media were collected and tested for cytokine levels by ELISA. Cell viability was determined using the crystal violet assay (FIG. 9C). Values represent the means±SEM (n=4 for each treatment).
Microglial cells were treated with 20 μg/mL of achillolide A, followed by stimulation with LPS (4.5 ng/mL). After 5 h the levels of the indicated transcripts were measured by quantitative real-time PCR and the relative quantity (RQ) of the different transcripts were determined. […] The results are expressed as percentages relative to LPS-stimulated cells. […]

NO = NO (nitrite) production by LPS-activated microglial cells (Griess); conditions: LPS 4.5 ng/mL, 20 h
Method: as §1
For NO measurements, 1×10^5 microglial cells/well were plated in a 24-well tissue culture plate. Cells were stimulated with LPS (4.5 ng/mL) and concomitantly treated with achillolide A or a reference drug. NO levels in the culture medium were estimated with Griess reagent.
3. Activate microglial cells with lipopolysaccharide (LPS, 4.5 nanograms/mL);
In FIG. 21 A, microglial cells were treated with different concentrations of achillolide A, dexamethasone or memantine (as reference drugs) and were concomitantly activated by LPS (4.5 ng/mL) for 20 h. Cell conditioned supernatants were collected, and the levels of NO were measured using Griess reaction. Cytotoxicity was measured using the LDH method (FIG. 21B). Values represent the mean±SEM (n=12 for each treatment). ** p<0.01; ***p<0.001 relative to cells that were treated to LPS only.

glutamate = assay: Glutamate secretion from LPS-activated microglial cells; conditions: LPS 100 ng/mL, 20 h
Method: For glutamate measurements, 3.5×10^4 cells/well were plated on a 24-well tissue culture plate. After 24 h of incubation in DMEM containing 10% FBS, cells were stimulated with LPS (100 ng/mL) and treated with different concentrations of achillolide A. Conditioned media were collected twenty hours later, and were tested for glutamate levels using a colorimetric enzymatic assay kit (glutamate assay kit, BioVision, CA, USA) according to the manufacturer's instructions. 7. Measure the levels of glutamate using a colorimetric enzymatic assay kit (glutamate assay kit, BioVision, CA, USA) according to the manufacturer's instructions. Microglial cells were treated with the indicated concentrations of achillolide A, followed by stimulation with LPS (100 ng/mL). After 20 h, conditioned media were collected and tested for glutamate levels by a commercial kit. Values represent the means±SEM (n=4 for each treatment). ** p<0.01; *** p<0.001, compared to LPS-stimulated cells.

microglial cells = assay: Cellular antioxidant activity (ABAP peroxyl radicals) in microglial cells; conditions: ABAP 0.6 mM, dexamethasone at nanomolar concentrations
Method: Intracellular ROS production was detected using the non-fluorescent cell permeating compound, 2′7′-dichlorofluorescein diacetate (DCF-DA). DCF-DA is hydrolyzed by intracellular esterases and then oxidized by ROS to a fluorescent compound 2′-7′-DCF. Peroxyl radicals are generated by thermolysis of 2,2′-Azobis(amidinopropane) (ABAP) at physiological temperature. ABAP decomposes at approximately 1.36×10^−6s^−1 at 37° C., producing at most 1×10^12 radicals/mL/s. Microglial cells (130,000 cells/well) were plated in DMEM containing 2% FBS, 8.4 mM HEPES, 2 mM glutamine, 100 U/mL penicillin and 100 μg/mL streptomycin, onto 24 wells plates. In order to measure the ability of achillolide A to enter the cells and prevent the formation of DCF by ABAP-generated peroxyl radicals, cells were incubated for 1 h with achillolide A. Then cells were preloaded with DCF-DA for 30 min, washed twice with PBS, and ABAP (0.6 mM final concentration) was then added. The fluorescence, which indicates ROS levels, was measured in a plate reader with excitation at 485 nm and emission at 520 nm.
Cells were incubated for 1 h with different concentrations of achillolide A. Then, the cells were pre-loaded with DCF-DA for 30 min and washed. ABAP (0.6 mM) was added to the culture and ROS levels were measured at the indicated time points. […]

C[C@@H]1C[C@H]2[C@@H]3CCC4=CC(=O)C=C[C@]4(C)[C@@]3(F)[C@@H](O)C[C@]2(C)[C@@]1(O)C(=O)CO [dexamethasone, reference compound]
inhibition of IL-1β secretion (IL-1β): 85%
inhibition of NO produced by the activated cells (NO): 90%
inhibition of the LPS-induced levels of secreted glutamate (glutamate): 90%
inhibition of the ABAP-induced increase in ROS fluorescence (microglial cells): 75%
